# Assays:
# [1] = system: Candida albicans; settings: microtiter broth, 25° C., 3-5 days
# Description: (§1) The susceptibility of selected pathogens to individual and mixtures of acetic and boric acid was investigated, in vitro. Fresh isolates of Staphylococcus intermedius, Pseudomonas aeruginosa, Candida albicans, Microsporum canis and Malassezia pachydermatis were obtained from VHUP Clinical Veterinary Microbiology Laboratory. Staphylococcus and Pseudomonas were grown on Mueller-Hinton (M-H) broth overnight at approximately 37° C. and fungi were inoculated into Sabourauds Antibiotic broth medium and incubated at 25° C. for 4 days. Stock dilutions (2x) of both boric acid and acetic acid were prepared in M-H broth (for bacteria studies) or in Sabourauds Antibiotic Broth (for fungal studies). These concentrations were 1.0%, 4.0%, 7.5% and 10.0%. The stock solutions were used to prepare the full spectrum of all possible combinations of acetic and boric acids in 96 well microtiter plates. All wells were raised to a final volume of 100 ul as required. The organisms were diluted to an approximate concentration of 10^5 cfu and 10 ul of this preparation was inolculated into each well with an 8 channel micropipeter. The microtiter plates containing the bacteria were incubated at 35.5° C. for 18 to 24 hours. The plates containing the fungi were incubated at 25° C. for 3-5 days. The presence of the growth in the wells was recorded. These values determine the Minimum Inhibitory Concentration (MIC) of the acids at individual and mixed concentrations.
# [2] = system: Pseudomonas aeruginosa; settings: microtiter broth, 35.5° C., 18 to 24 hours
# Description: as §1
# [3] = system: Staphylococcus intermedius; settings: microtiter broth, 35.5° C., 18 to 24 hours
# Description: as §1
# [4] = system: Candida albicans; settings: in vitro; cited from earlier work
# [5] = system: vulvovaginal candidiasis; settings: in vivo; cited from earlier work
# [6] = system: fungi causing otomycosis; settings: in vitro, five fungi; cited from earlier work
Compound,growth inhibition [1],growth inhibition [2],growth inhibition [3],activity against Candida albicans [4],efficacy in treating vulvovaginal candidiasis [5],fungitoxic effect [6]
"OB(O)O [Boric acid, boric acid]",inhibited,inhibited,inhibited,fungistatic,effective,–
CC(=O)O [acetic acid],–,–,–,–,–,Some antifungal effect

# From patent publication US6420425B1, “Method for the broad based treatment of infections especially infections of organs such as the skin and vagina” (priority 1997, dated 2002)
